Results reported in ChEMBL document CHEMBL1201862, “PubChem BioAssay data set” (2004).
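Cells were grown in 96-well plates and exposed to each compound for 48 hours at five concentrations; endpoints were interpolated linearly between bracketing concentrations, or set to the highest concentration if not reached. The concentration for 50% growth inhibition is given as GI50.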 Calls of active or inactive are those of the source. Rule as the data show it: active = GI50 up to about 1.1 µM and inactive = higher.

Assays:
Assay in all cases: inhibition of tumour cell growth, NCI panel, 48 h
[1] = tested on: A549
[2] = tested on: UO-31
[3] = tested on: HCT-15
[4] = tested on: SW-620
[5] = tested on: HCT-116
[6] = tested on: IGROV-1
[7] = tested on: SK-MEL-28
[8] = tested on: CCRF-CEM
[9] = tested on: SF-268
[10] = tested on: HOP-62
[11] = tested on: SF-295
[12] = tested on: OVCAR-3
[13] = tested on: NCI-H23
[14] = tested on: M14
[15] = tested on: MOLT-4

SMILES | GI50 [1] | GI50 [2] | GI50 [3] [µM] | GI50 [4] | GI50 [5] | GI50 [6] | GI50 [7] | GI50 [8] | GI50 [9] | GI50 [10] | GI50 [11] | GI50 [12] | GI50 [13] | GI50 [14] | GI50 [15]
O=c1cc(O)ccn1C1C=C(CO)C(O)C1O (configuration not stated) | > 625 µM (inactive) | > 625 µM (inactive) | > 625 | > 625 µM (inactive) | 263 µM (inactive) | > 625 µM (inactive) | > 625 µM (inactive) | > 625 µM (inactive) | > 625 µM (inactive) | > 625 µM (inactive) | > 625 µM (inactive) | > 625 µM (inactive) | – | – | –
Cc1c(/C=N/NC(=O)c2ccccc2O)c(=O)n(-c2ccccc2)n1C | > 100 µM (inactive) | 54.7 µM (inactive) | 29.2 | > 100 µM (inactive) | 64.9 µM (inactive) | > 100 µM (inactive) | > 100 µM (inactive) | 50.2 µM (inactive) | > 100 µM (inactive) | 58.3 µM (inactive) | > 100 µM (inactive) | > 100 µM (inactive) | > 100 µM (inactive) | > 100 µM (inactive) | 72.6 µM (inactive)
O=C(/C=C(\O)C(=O)O)/C=C(\O)c1ccccc1Cl | > 100 µM (inactive) | > 100 µM (inactive) | > 100 | > 100 µM (inactive) | > 100 µM (inactive) | > 100 µM (inactive) | > 100 µM (inactive) | > 100 µM (inactive) | > 100 µM (inactive) | > 100 µM (inactive) | > 100 µM (inactive) | > 100 µM (inactive) | > 100 µM (inactive) | > 100 µM (inactive) | > 100 µM (inactive)
CC(=O)Nc1ccccc1-c1nc2ccccc2nc1C | > 100 µM (inactive) | 61.9 µM (inactive) | > 100 | > 100 µM (inactive) | > 100 µM (inactive) | > 100 µM (inactive) | > 100 µM (inactive) | > 100 µM (inactive) | > 100 µM (inactive) | > 100 µM (inactive) | > 100 µM (inactive) | > 100 µM (inactive) | > 100 µM (inactive) | > 100 µM (inactive) | > 100 µM (inactive)
CC1(O)CCC2(C#N)CCC1C2O (configuration not stated) | > 100 µM (inactive) | > 100 µM (inactive) | > 100 | – | 43.5 µM (inactive) | > 100 µM (inactive) | > 100 µM (inactive) | 49 µM (inactive) | > 100 µM (inactive) | > 100 µM (inactive) | > 100 µM (inactive) | > 100 µM (inactive) | – | > 100 µM (inactive) | > 100 µM (inactive)
COCOc1ccc(Cn2c(=O)n(C)c(=O)c3c2ncn3C)cc1[N+](=O)[O-] | > 100 µM (inactive) | > 100 µM (inactive) | > 100 | > 100 µM (inactive) | > 100 µM (inactive) | > 100 µM (inactive) | > 100 µM (inactive) | > 100 µM (inactive) | > 100 µM (inactive) | > 10 µM (inactive) | 25.7 µM (inactive) | > 100 µM (inactive) | 80.2 µM (inactive) | > 100 µM (inactive) | 91.8 µM (inactive)
COc1cc[n+](C)cc1 | > 100 µM (inactive) | > 100 µM (inactive) | > 100 | > 100 µM (inactive) | > 100 µM (inactive) | > 100 µM (inactive) | > 100 µM (inactive) | > 100 µM (inactive) | > 100 µM (inactive) | > 100 µM (inactive) | > 100 µM (inactive) | > 100 µM (inactive) | > 100 µM (inactive) | – | > 100 µM (inactive)
CC(=O)NC(CCCNC(=O)OCc1ccccc1)C(=O)O (configuration not stated) | > 100 µM (inactive) | > 100 µM (inactive) | > 100 | > 100 µM (inactive) | > 100 µM (inactive) | > 100 µM (inactive) | > 100 µM (inactive) | > 100 µM (inactive) | > 100 µM (inactive) | > 100 µM (inactive) | > 100 µM (inactive) | > 100 µM (inactive) | > 100 µM (inactive) | > 100 µM (inactive) | > 100 µM (inactive)
CCc1nc2ccccc2c(=O)n1/N=C(\N=N\c1ccc(Cl)cc1)c1ccccc1 | 23.3 µM (inactive) | 19.5 µM (inactive) | 39.6 | 31.3 µM (inactive) | 17.3 µM (inactive) | 34 µM (inactive) | 32 µM (inactive) | 65.8 µM (inactive) | 17.3 µM (inactive) | 24.3 µM (inactive) | 25 µM (inactive) | 20.7 µM (inactive) | > 100 µM (inactive) | 34.2 µM (inactive) | 28.1 µM (inactive)
Cc1c(N2CCN(C)CC2)nc2ccc(Cl)cc2c1-c1ccccc1 | 18.4 µM (inactive) | 16.5 µM (inactive) | 18.9 | 16.8 µM (inactive) | 17.8 µM (inactive) | – | 18 µM (inactive) | 17.5 µM (inactive) | 29.4 µM (inactive) | 18.2 µM (inactive) | 17.4 µM (inactive) | 24.3 µM (inactive) | 23.1 µM (inactive) | 18.5 µM (inactive) | > 10 µM (inactive)
C[C@H]1COC2(c3ccccc3)CCC(=O)N12 (some centres not stated) | > 100 µM (inactive) | – | > 100 | > 100 µM (inactive) | > 100 µM (inactive) | > 100 µM (inactive) | > 100 µM (inactive) | > 100 µM (inactive) | > 100 µM (inactive) | > 100 µM (inactive) | > 100 µM (inactive) | > 100 µM (inactive) | > 100 µM (inactive) | – | –
N#C/C(=C\c1ccc(C(O)P(=O)(O)O)cc1)C(N)=O (configuration not stated) | > 100 µM (inactive) | > 100 µM (inactive) | > 100 | > 100 µM (inactive) | 76.9 µM (inactive) | > 100 µM (inactive) | > 100 µM (inactive) | 9.93 µM (inactive) | > 100 µM (inactive) | 73.3 µM (inactive) | > 100 µM (inactive) | > 100 µM (inactive) | > 100 µM (inactive) | > 100 µM (inactive) | 24.9 µM (inactive)
COc1cc(-c2ccc(/N=N/c3c(S(=O)(=O)O)cc4cc(S(=O)(=O)O)cc(N)c4c3O)c(OC)c2)ccc1/N=N/c1c(S(=O)(=O)O)cc2cc(S(=O)(=O)O)cc(N)c2c1O | > 77.4 µM (inactive) | > 80.4 µM (inactive) | 59.6 | 73.5 µM (inactive) | > 100 µM (inactive) | > 100 µM (inactive) | > 100 µM (inactive) | > 88.3 µM (inactive) | > 100 µM (inactive) | > 100 µM (inactive) | > 100 µM (inactive) | > 62.8 µM (inactive) | > 100 µM (inactive) | – | > 82.6 µM (inactive)
O=C(CSc1nnc(-c2ccc(/N=C\c3ccc(Cl)cc3)cc2)o1)Nc1ccccc1 | > 100 µM (inactive) | 98.4 µM (inactive) | 68.2 | 44.9 µM (inactive) | 16.6 µM (inactive) | – | 43.6 µM (inactive) | 32.9 µM (inactive) | 35.7 µM (inactive) | > 100 µM (inactive) | 94.4 µM (inactive) | – | 50.2 µM (inactive) | 76 µM (inactive) | 39.6 µM (inactive)
